Here are results for four molecules from US7671019B2, “3-deoxyglucosone and skin” (Dynamis Therapeutics, Inc., priority 2002, dated 2010).

Where “and” joins values, the source holds several entries; their conditions need not be identical. Equal entries are not always repeated.

Data set [1] deals with T1, Calf skin collagen Type 1 (Bos taurus, UniProt P02453+P02465).
T1 construct: Calf skin collagen Type 1 (1.3 mg; Sigma); purchased Sigma; host or cells: calf skin (tissue-derived)
Description: 3DG-induced collagen crosslinking, CNBr digestion and SDS-PAGE. Format: biochemical. The conditions noted are these: 37° C., 24 hours. The procedure: Collagen type I was treated with 3DG in the presence or absence of arginine. The samples were subjected to cyanogen bromide (CNBr) digestion, electrophoresed on a 16.5% SDS Tris-tricine gel, and then the gels were processed using silver stain techniques to visualize the proteins. Lane 1 contains molecular weight marker standards. Lanes 2 and 5 contain 10 and 20 μl of the collagen mixture following CNBr digestion. Lanes 3 and 6 contain the collagen mixture treated with 3DG and then digested with CNBr, and loaded at 10 and 20 μl, respectively. Lanes 4 and 7 contain the mixture of collagen incubated with 5 mM 3DG and 10 mM arginine and then digested with CNBr, and loaded at 10 and 20 μl, respectively.
Collagen I was incubated in the presence or absence of 3DG in vitro. Calf skin collagen Type 1 (1.3 mg; Sigma) was incubated in 20 mM Na-phosphate buffer, pH 7.25, either alone, with 5 mM 3DG, or with 5 mM 3DG plus 10 mM arginine, in a total volume of 1 ml at 37° C. for 24 hours and then frozen and lyophilized. The residue was dissolved in 0.5 ml of 70% formic acid and cyanogen bromide was added (20:1, w/w). This solution was incubated at 30° C. for 18 hours. […] The extent of collagen crosslinking was determined by applying equal volumes of sample and analyzing by SDS-PAGE electrophoresis (16.5% Tris-tricine gel), as determined by the effects of 3DG on the migration of collagen.

The subject of the next data set is 3DG. Kind of data set: Plasma 3DG levels in diabetic and non-diabetic rats treated with 3-O-methyl sorbitollysine. The class given is in vivo. The conditions noted are these: 50 mg/kg injections, within one week. The method, then: A cohort of twelve diabetic rats was divided into two groups of six. The first group received saline-only injections, and the second received injections of 3-O-methyl sorbitollysine (50 mg/kg body weight) in saline solution. The same procedure was conducted on a cohort of twelve non-diabetic rats.

Data set [2] is described as follows: Skin elasticity (vacuum pull needed to displace skin) in STZ-diabetic and normal rats. The conditions noted are these: 50 mg/kg daily subcutaneous, eight weeks. Format: in vivo. The procedure: Experiments were performed to determine the effects of DYN 12 on the loss of skin elasticity associated with diabetes. To this end, two groups of STZ-diabetic rats and two groups of normal rats were subjected to treatment with DYN 12 or saline. One group of STZ-diabetic rats (n=9) received daily subcutaneous injections of DYN 12 at 50 mg/kg for eight weeks, as did one group of normal rats (n=6). A group of control diabetic rats (n=10) and a group of normal rats (n=6) received saline instead of DYN 12. One rat was removed from the diabetic DYN 12 group after 2 weeks because its blood glucose readings were inconsistent (too low) with other diabetic rats.
A non-invasive procedure based on CyberDERM, Inc. technology utilizing a skin elasticity measurement device was used to test the effects of DYN 12 treatment on skin elasticity. The procedure provides for non-invasive measurement of skin elasticity based upon the amount of vacuum pull required to displace skin. A suction cup probe is adhered to an area of shaved skin in order to form an airtight seal. Then, a vacuum is applied to the area of the skin inside the suction cup until the skin is displaced past a sensor located inside the probe. Accordingly, the more pressure that is required to displace the skin, the less elastic the skin is.

Data set [3] in a line: Muscle strength of alert diabetic rats. To be noted: measured while alert, preliminary data. Format: in vivo. The text has this: The present invention also encompasses methods for prevention of hair loss associated with or mediated by loss of microcirculation and/or loss of neuro-innervation in populations of aging, sclerodermic and/or in diabetic individuals. This is because 3DG is a known precursor to the formation of AGEs which are known to be causally connected to the development of neuropathy. […] This supports the concept that maintenance of nerve conduction and microcirculation that supports nerve innervation is deleteriously affected not only by AGEs, but also 3DG. Similarly, where 3DG would cause blockage of the microcirculation that supports nerve innervation of the hair follicle, the hair follicle will atrophy and die, as is the case in neuropathy.Accordingly, the present invention includes methods for preventing hair loss, where such hair loss is associated with or mediated by the presence of 3DG in the skin proximal to a hair follicle/shaft.
Skin elasticity measurements were also taken on the test subjects as described above, but without sedating the test animals before measurement. FIG. 15 illustrates skin elasticity measurements taken on the hind leg of the test subjects while the subjects were alert and being restrained by a technician.
In these experiments, the animals were fiercely fighting restraint and the results are different.

A short description of data set [4]: Locus of 3-O-methyl sorbitollysine uptake in vivo (tissue, urine, plasma analysis). Further details: species or system rats. The method, then:
Six rats were injected intraperitoneally with […] (4.4 mg) of 3-O-methyl sorbitollysine. Urine was collected for 3 hours, after which the rats were sacrificed. The tissues to be analyzed were removed and freeze clamped in liquid nitrogen. Perchloric acid extracts of the tissues were used for metabolite analysis. The tissues examined were taken from the brain, heart, muscle, sciatic nerve, spleen, pancreas, liver, and kidney. Plasma was also analyzed.

The next data set has as its system mouse mesangial cells. Description: Type IV collagen production in kidney cells in vitro. The class given is cell-based. The procedure:
Type IV collagen production was measured in mouse mesangial cells. Controls (grown with […]) produced 300 ng of Type IV collagen per 10,000 cells, whereas fructoselysine treated cells (5 or 10 mM fructoselysine with 10 mM glucose) produced 560 and 1100 ng/10,000 cells.

On the set-up of data set [5]: species or system rats. To be noted: rat, in vivo. The method, then: Two rats were injected daily with 5 μmols of either FL or mannitol (used as a control) for 5 days. The animals were sacrificed and the kidneys removed and dissected into the cortex and medulla. Tissues were homogenized in 5 volumes of 50 mM Tris-HCl containing 150 mM KCl, 15 mM MgCl2 and 5 mM DTT, pH 7.5. Cellular debris was removed by centrifugation at 10,000×g for 15 minutes, and the supernatant was then centrifuged at 150,000×g for 70 minutes. The soluble proteins were analyzed by SDS PAGE on 12% polyacrylamide gels as well as on 4-15 and 10-20% gradient gels.

On the set-up of data set [6]: species or system human. To be noted: in vivo. The method, then:
Volunteers spent two days on a fructoselysine-free diet and then consumed 22.5 g of the food product prepared as described herein, thus effectively receiving a 2 gram dose of fructoselysine. Urine was collected at 2 hour intervals for 14 hours and a final collection was made at 24 hours. FL was measured by HPLC with a Waters 996 diode Array using a Waters C18 Free Amino Acid column at 46° C. and a gradient elution system of acetonitrile-methyl alcohol-water (45:15:40) into acetonitrile-sodium acetate-water (6:2:92) at 1 ml/min. Quantitation employed an internal standard of meglumine. 3DF was measured by HPLC after deionization of the sample. Analyses were performed on a Dionex DX-500 HPLC system employing a PA1 column (Dionex) and eluting with 32 mM sodium hydroxide at 1 ml/min. Quantitation was performed from standard curves obtained daily with synthetic 3DF. 3DG was measured by GC-MS after deionization of the sample. 3DG was derivatized with a 10-fold excess of diaminonaphthalene in PBS. Ethyl acetate extraction gave a salt free fraction which was converted to the trimethyl silyl ethers with Tri-Sil (Pierce). Analysis was performed on a Hewlett-Packard 5890 selected ion monitoring GC-MS system. […] Quantitation of 3DG employed selected ion monitoring using an internal standard of U-13C-3DG.

T1 sequence (P02453 162-1217 limits assumed): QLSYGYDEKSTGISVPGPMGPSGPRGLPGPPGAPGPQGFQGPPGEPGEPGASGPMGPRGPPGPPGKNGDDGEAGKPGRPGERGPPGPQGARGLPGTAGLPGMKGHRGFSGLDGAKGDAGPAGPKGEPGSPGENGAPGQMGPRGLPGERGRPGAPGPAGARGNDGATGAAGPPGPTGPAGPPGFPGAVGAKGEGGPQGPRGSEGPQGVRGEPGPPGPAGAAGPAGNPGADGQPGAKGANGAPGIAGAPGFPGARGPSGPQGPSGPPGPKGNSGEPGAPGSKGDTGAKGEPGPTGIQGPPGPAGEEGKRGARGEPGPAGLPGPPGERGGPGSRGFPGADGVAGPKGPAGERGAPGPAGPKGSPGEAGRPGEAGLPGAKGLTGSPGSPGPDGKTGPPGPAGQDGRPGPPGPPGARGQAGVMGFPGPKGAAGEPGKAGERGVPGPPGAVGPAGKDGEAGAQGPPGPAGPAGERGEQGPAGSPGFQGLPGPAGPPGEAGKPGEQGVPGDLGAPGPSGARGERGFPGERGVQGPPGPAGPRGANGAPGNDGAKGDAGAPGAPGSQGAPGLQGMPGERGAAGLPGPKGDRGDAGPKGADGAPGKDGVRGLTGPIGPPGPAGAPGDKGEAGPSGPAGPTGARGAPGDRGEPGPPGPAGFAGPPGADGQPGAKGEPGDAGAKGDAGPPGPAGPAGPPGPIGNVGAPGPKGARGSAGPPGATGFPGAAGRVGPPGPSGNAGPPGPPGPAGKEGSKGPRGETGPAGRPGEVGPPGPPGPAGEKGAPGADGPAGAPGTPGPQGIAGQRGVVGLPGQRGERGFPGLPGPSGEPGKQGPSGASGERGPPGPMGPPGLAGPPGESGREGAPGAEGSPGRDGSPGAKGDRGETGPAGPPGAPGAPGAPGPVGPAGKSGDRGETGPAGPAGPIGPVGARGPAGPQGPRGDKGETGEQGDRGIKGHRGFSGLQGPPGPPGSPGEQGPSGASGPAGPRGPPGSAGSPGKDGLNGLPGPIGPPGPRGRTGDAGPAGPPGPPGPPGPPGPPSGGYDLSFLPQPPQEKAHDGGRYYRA
T1 sequence (P02465 80-1117 limits assumed): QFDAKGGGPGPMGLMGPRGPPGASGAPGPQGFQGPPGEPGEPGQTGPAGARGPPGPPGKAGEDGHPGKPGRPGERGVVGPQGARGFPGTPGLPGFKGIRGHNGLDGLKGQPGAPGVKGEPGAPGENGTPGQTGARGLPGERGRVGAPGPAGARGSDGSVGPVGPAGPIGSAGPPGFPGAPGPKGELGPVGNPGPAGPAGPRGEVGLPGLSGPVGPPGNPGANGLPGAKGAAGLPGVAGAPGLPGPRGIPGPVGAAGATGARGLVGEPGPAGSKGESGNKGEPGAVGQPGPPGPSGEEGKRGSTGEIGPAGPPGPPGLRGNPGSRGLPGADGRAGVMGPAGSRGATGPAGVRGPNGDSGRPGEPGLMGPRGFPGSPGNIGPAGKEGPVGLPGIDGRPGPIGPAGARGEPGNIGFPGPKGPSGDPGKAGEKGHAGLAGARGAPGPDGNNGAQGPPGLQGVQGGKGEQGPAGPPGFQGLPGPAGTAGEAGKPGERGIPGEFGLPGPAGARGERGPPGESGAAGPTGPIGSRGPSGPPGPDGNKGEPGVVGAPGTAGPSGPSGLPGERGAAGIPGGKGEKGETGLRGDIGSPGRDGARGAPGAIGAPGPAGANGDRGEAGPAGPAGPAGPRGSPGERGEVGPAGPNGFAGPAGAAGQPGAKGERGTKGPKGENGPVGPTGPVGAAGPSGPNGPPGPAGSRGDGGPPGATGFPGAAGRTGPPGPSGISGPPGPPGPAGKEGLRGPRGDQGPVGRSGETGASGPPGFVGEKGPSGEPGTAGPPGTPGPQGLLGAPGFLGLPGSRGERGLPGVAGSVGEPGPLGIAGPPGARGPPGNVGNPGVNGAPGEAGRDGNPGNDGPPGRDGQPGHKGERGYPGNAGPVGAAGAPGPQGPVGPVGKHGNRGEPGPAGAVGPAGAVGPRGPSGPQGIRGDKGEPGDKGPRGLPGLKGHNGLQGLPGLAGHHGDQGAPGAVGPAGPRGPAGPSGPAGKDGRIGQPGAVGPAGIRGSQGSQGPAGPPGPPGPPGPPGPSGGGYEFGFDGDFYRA

For the molecule `O=CC(=O)C[C@H](O)[C@H](O)CO` [3DG, 3-deoxyglucosone], the “collagen crosslinking (migration on SDS-PAGE)” value in data set [1] (5 mM 3DG) is recorded as “caused the collagen to migrate as if it had a higher molecular weight”.
For `COC(C(O)CNCCCCC(N)C(=O)O)C(O)C(O)CO` (stereo not drawn) [DYN 12, 3-O-methyl sorbitollysine], the “plasma 3DG level” value with 3DG (Diabetic rats) came out at 0.44 ± 0.10 µM; in the data set on 3DG (Non-diabetic rats), 0.13 ± 0.02 µM. The “amount of pressure needed to displace the skin” value in data set [2] is 3.2±1.2 kPA. Moreover, the “muscle strength vs diabetic rats not so treated” value in data set [3] is on record as “stronger muscle strength”. Also, the “compound contained in plasma” value in data set [4] (3 hours after i.p. injection) was “plasma did not”. Also, the “% 3OMeSL recovered (injected dose recovered from urine and kidney)” value in data set [4] (individual rats, urine plus kidneys, 3 hours, listed as 3OMeSL) was 91.5% and 38.8% and 96.4% and 61.2% and 53.0% and 53.3%.
Turning to `N=C(N)NCCC[C@H](N)C(=O)O` [arginine], the “inhibition of 3DG induced collagen crosslinking (high molecular weight bands)” value in data set [1] (5 mM 3DG plus 10 mM arginine) was “fewer high molecular bands”.
With `N[C@@H](CCCCNCC(=O)[C@@H](O)[C@H](O)[C@H](O)CO)C(=O)O` [fructoselysine, 1-deoxy-1-(e-aminolysine)-fructose], the figures for the “Type IV collagen produced” value in the data set with mouse mesangial cells (5 mM fructoselysine with 10 mM glucose) and in the data set on mouse mesangial cells (10 mM fructoselysine with 10 mM glucose) were 560 ng/10,000 cells and 1100 ng/10,000 cells, respectively. In data set [5], the “soluble kidney proteins on SDS PAGE vs mannitol-injected animal” value is “lower molecular weight bands were missing or visually reduced”. Also, in data set [6], the “time of peak 3DF excretion in urine after the FL bolus” value is reported as “about 4 hours”.
